# Experiments:
# E. coli MG1655 = assay type: cell-based, Escherichia coli
# ten strains of E. coli = assay type: cell-based, Escherichia coli
# HepG2 cells = HepG2 cells cultured on CYTODEX 3 microcarriers, energy sources; assay type: cell-based, human; conditions: for activity at 30 µM / activity at 100 µM / activity at 330 µM / activity at 1000 µM / activity at 3300 µM / activity at 10000 µM / activity at 15000 µM / activity at 20000 µM: Homo sapiens, HepG2, 68 h, read-out: Responses of HepG2 Cells Cultured on Microcarriers After 68 hours in Culture and a 4 hour Color Development Period
# Method: In this Example, methods for testing adherent cells cultured in suspension, for their ability to use multiple carbon sources are described. HepG2 cells were cultured as described in Example 30.
# HepG2 cells were harvested by trypsinization for 3 minutes in 0.25% trypsin-1 mM EDTA and resuspended in an equal volume of culture medium. A viable cell count was obtained by trypan blue exclusion and the appropriate volume of the cell suspension to have 2.7×10^6 cells/0.1 gm CYTODEX 3 (Sigma C3275) microcarrier beads was determined. Microcarrier beads had been previously prepared by 1) rehydration in calcium-magnesium free (CMF) DPBS for 3 hours, 2) autoclaving for 15 minutes, and 3) washing twice in MEM without serum. The cell suspension was added to the beads in a 50 mL tube, and the volume adjusted to 5 mL. Cells were allowed to attach for 1 hour in an atmosphere of 5% CO2, 90-100% humidity, and 37° C., with resuspension every 15 minutes. The microcarriers were transferred to a 100×15 mm Petri dish in a total volume of 20 mL. Cultures were maintained as stationary cultures until used for assay.
# The thixotropic suspending agent, methylcellulose (1500 cps, Sigma M0555), was included in the medium to keep the microcarriers suspended so that they could be accurately pipetted. The methylcellulose was prepared by autoclaving in 20 mL tissue culture water for 30 minutes, then mixing by shaking for 1 hour. The initial concentration of methylcellulose was […]. The methylcellulose was then diluted 1:1 in 2× DME with or without glucose, then supplemented with 10% HI FBS; this yields a methylcellulose concentration of 1.36%. Beads were transferred to a 50 mL tube, allowed to settle and resuspended in DPBS. The washed beads were then resuspended in DME with 10% HI FBS and penicillin-streptomycin but without glucose, L-glutamine, sodium pyruvate, or phenol red. An equal volume of 1.36% methylcellulose was added and mixed by pipetting.
# For the assay, 70 μL of DME with 10% HI FBS and penicillin-streptomycin but without glucose, L-glutamine, sodium pyruvate, or phenol red were added to each well, followed by 30 μL of the appropriate dilution of each test energy source. Stocks of 133 mM of each test chemical were prepared in tissue culture grade water, sterile filtered, and dilutions were prepared in a master plate so that, upon dilution into a regular 96-well MICROPLATE a total well volume of 200 μL, the final concentrations would be 0.033 to 20 mM. Negative control wells received 30 μL of tissue culture grade water. One hundred μL of beads were pipetted into each well. For each plate containing energy sources and cells, a second, control plate containing only energy sources was prepared. Plates were incubated at 5% CO2, 90-100% humidity, and 37° C. for 68 hours prior to addition of the MTS/MPMS colorometric reagent (10 μL/well). The color formed in each well 4-8 hours after addition of the colorimetric reagent, was measured with a plate reader at 490 nm with a reference wavelength of 650 nm. OD values from the control plate were subtracted from the OD values obtained with cells prior to normalizing the data to % negative control (cells without added energy source).
smiles,measurement,setting,value
CCCCCCC(N)C(=O)O (racemic) [DL-α-amino-caprylic acid],"suitability as nitrogen source (growth, purple color)",E. coli MG1655,not suitable
CCC(N)C(=O)O (racemic) [DL-α-amino-n-butyric acid],"suitability as nitrogen source (growth, purple color)",E. coli MG1655,not suitable
CCCC(N)C(=O)O (centres unmarked) [2-amino-valeric acid],"suitability as nitrogen source (growth, purple color)",E. coli MG1655,not suitable
C[C@@H](N)c1ccccc1 [(R)-(+)-α-phenylethylamine],"suitability as nitrogen source (growth, purple color)",E. coli MG1655,not suitable
N[C@H]1C(O)O[C@H](CO)[C@H](O)[C@@H]1O (stereo partly drawn) [D(+)-galactosamine],"suitability as nitrogen source (growth, purple color)",E. coli MG1655,weak positive
N[C@H]1C(O)O[C@H](CO)[C@@H](O)[C@@H]1O (stereo partly drawn) [D(+)-glucosamine],"suitability as nitrogen source (growth, purple color)",E. coli MG1655,positive
NC(=O)C[C@@H](N)C(=O)O [D-asparagine],"suitability as nitrogen source (growth, purple color)",E. coli MG1655,not suitable
N[C@H](CCC(=O)O)C(=O)O [D-glutamic acid],"suitability as nitrogen source (growth, purple color)",E. coli MG1655,not suitable
NCCCC[C@@H](N)C(=O)O [D-lysine],"suitability as nitrogen source (growth, purple color)",E. coli MG1655,not suitable
N[C@@H]1C(O)O[C@H](CO)[C@@H](O)[C@@H]1O (stereo partly drawn) [D-mannosamine],"suitability as nitrogen source (growth, purple color)",E. coli MG1655,weak positive
CC(C)[C@@H](N)C(=O)O [D-valine],"suitability as nitrogen source (growth, purple color)",E. coli MG1655,not suitable
NC(=O)NCCC[C@H](N)C(=O)O [L-citrulline],"suitability as nitrogen source (growth, purple color)",E. coli MG1655,not suitable
CC[C@H](C)[C@H](N)C(=O)O [L-isoleucine],"suitability as nitrogen source (growth, purple color)",E. coli MG1655,not suitable
CC(C)C[C@H](N)C(=O)O [L-leucine],"suitability as nitrogen source (growth, purple color)",E. coli MG1655,not suitable
NCCCC[C@H](N)C(=O)O [L-lysine],"suitability as nitrogen source (growth, purple color)",E. coli MG1655,not suitable
N[C@@H](Cc1ccc(O)cc1)C(=O)O [L-tyrosine],"suitability as nitrogen source (growth, purple color)",E. coli MG1655,not suitable
CC(=O)N[C@H]1C(O)O[C@H](CO)[C@H](O)[C@@H]1O (stereo partly drawn) [N-acetyl-D-galactosamine],"suitability as nitrogen source (growth, purple color)",E. coli MG1655,not suitable
CC(=O)NCC(=O)O [N-acetyl-glycine],"suitability as nitrogen source (growth, purple color)",E. coli MG1655,not suitable
OC[C@H]1O[C@@](CO)(O[C@H]2O[C@H](CO)[C@@H](O)[C@H](O)[C@H]2O)[C@@H](O)[C@@H]1O [Sucrose],carbon source utilization,ten strains of E. coli,+ and −
same,carbon source utilization (text),ten strains of E. coli,three of the four strains were positive
same,activity at 30 µM,HepG2 cells; Conc. 0.03 mM,90.2%
same,activity at 100 µM,HepG2 cells; Conc. 0.10 mM,109%
same,activity at 330 µM,HepG2 cells; Conc. 0.33 mM,98.6%
same,activity at 1000 µM,HepG2 cells; Conc. 1.00 mM,95.2%
same,activity at 3300 µM,HepG2 cells; Conc. 3.3 mM,94%
same,activity at 10000 µM,HepG2 cells; Conc. 10 mM,83.3%
same,activity at 15000 µM,HepG2 cells; Conc. 15 mM,66.8%
same,activity at 20000 µM,HepG2 cells; Conc. 20 mM,59.5%
CC(N)=O [acetamide],"suitability as nitrogen source (growth, purple color)",E. coli MG1655,not suitable
Nc1ncnc2nc[nH]c12 [adenine],"suitability as nitrogen source (growth, purple color)",E. coli MG1655,not suitable
N=C(N)NCCCCN [agmatine],"suitability as nitrogen source (growth, purple color)",E. coli MG1655,not suitable
CC(CC(=O)O)C(=O)O (centres unmarked) [methyl succinate],Responses of HepG2 Cells Cultured on Microcarriers After 68 hours in Culture and a 4 hour Color Development Period,HepG2 cells; Conc. 0.03 mM,90.6 % of negative control
same,Responses of HepG2 Cells Cultured on Microcarriers After 68 hours in Culture and a 4 hour Color Development Period,HepG2 cells; Conc. 0.10 mM,83.3 % of negative control
same,Responses of HepG2 Cells Cultured on Microcarriers After 68 hours in Culture and a 4 hour Color Development Period,HepG2 cells; Conc. 0.33 mM,98.6 % of negative control
same,Responses of HepG2 Cells Cultured on Microcarriers After 68 hours in Culture and a 4 hour Color Development Period,HepG2 cells; Conc. 1.00 mM,107.5 % of negative control
same,Responses of HepG2 Cells Cultured on Microcarriers After 68 hours in Culture and a 4 hour Color Development Period,HepG2 cells; Conc. 3.3 mM,124.3 % of negative control
same,Responses of HepG2 Cells Cultured on Microcarriers After 68 hours in Culture and a 4 hour Color Development Period,HepG2 cells; Conc. 10 mM,162.7 % of negative control
same,Responses of HepG2 Cells Cultured on Microcarriers After 68 hours in Culture and a 4 hour Color Development Period,HepG2 cells; Conc. 15 mM,181.5 % of negative control
same,Responses of HepG2 Cells Cultured on Microcarriers After 68 hours in Culture and a 4 hour Color Development Period,HepG2 cells; Conc. 20 mM,112.4 % of negative control
O[C@H]1[C@H](O)[C@@H](O)[C@H](O)[C@@H](O)[C@H]1O [myoinositol],activity at 30 µM,HepG2 cells; Conc. 0.03 mM,86.3%
same,activity at 100 µM,HepG2 cells; Conc. 0.10 mM,110%
same,activity at 330 µM,HepG2 cells; Conc. 0.33 mM,113%
same,activity at 1000 µM,HepG2 cells; Conc. 1.00 mM,99.8%
same,activity at 3300 µM,HepG2 cells; Conc. 3.3 mM,108%
same,activity at 10000 µM,HepG2 cells; Conc. 10 mM,89%
same,activity at 15000 µM,HepG2 cells; Conc. 15 mM,78.3%
same,activity at 20000 µM,HepG2 cells; Conc. 20 mM,61.4%

# — US9274101B2 (BIOLOG, Inc., priority 2001, dated 2016)
